Source: patent US11485744B2, “High penetration prodrug compositions of antimicrobials and antimicrobial-related compounds” (priority 2009, dated 2022)
In brackets after ≈: the same amount, converted by molar mass. Where two headings read alike, the source gives them in different places. Each block holds one compound with its values, some of them ahead of it.

Tests used:
[1] = In vitro penetration across isolated human skin in modified Franz cells; conditions: pH 7.4
Protocol: Penetration rates of HPPs and their parent drugs through human skin were measured in vitro by modified Franz cells. A Franz cell had two chambers, the top sample chamber and the bottom receiving chamber. The human skin tissue (360-400 μm thick) that separated the top and the receiving chambers was isolated from the anterior or posterior thigh areas.
A test compound (2 mL, 10% in 0.2 M phosphate buffer, pH 7.4) was added to the sample chamber of a Franz cell. The receiving chamber contained 10 ml of 0.2 M phosphate buffer which was stirred at 600 rpm. The amount of the tested compound penetrating the skin was determined by high-performance liquid chromatography (HPLC) method.

[2] = tested on: methicillin-resistant Staphylococcus aureus (MRSA); assay: MIC against MRSA; assay type: cell-based; conditions: Table 6a
E. cloacae = assay: MIC against E. cloacae; assay type: cell-based; conditions: Enterobacter cloacae; Table 6b; combinations antibiotic/inhibitor
K. pneumonlae = assay: MIC against K. pneumonlae; assay type: cell-based; conditions: Table 6b; combinations antibiotic/inhibitor
B. fragilis = assay: MIC against B. fragilis; assay type: cell-based; conditions: Bacteroides fragilis; Table 6b; combinations antibiotic/inhibitor
E. coli [3] = assay: MIC against E. coli; conditions: for MIC: Escherichia coli, read-out: MIC, E. coli; for MIC, E. coli: Table 6c
E. faecalis = assay: MIC against E. faecalis; assay type: cell-based; conditions: Table 6c; for MIC: Enterococcus faecalis
S. aureus = assay: MIC against S. aureus; conditions: for MIC: Staphylococcus aureus, read-out: MIC, S. aureus; for MIC, S. aureus: Table 6c
[4] = Conversion of HPPs to parent drugs in human plasma (half life); assay type: in vitro ADME
Protocol: HPPs of antimicrobials or antimicrobial-related compounds converted to the parent antimicrobials or antimicrobial-related compounds quickly in good yield in human plasma.
A HPP of antimicrobial or antimicrobial-related compound (10 mg) was dissolved in 0.1 ml of 0.2M pH 7.4 phosphate buffer. 1 ml of human plasma, preheated to 37° C., was added into the mixture. The mixture was kept in a water bath at 37° C., and at every 2 min intervals 0.2 ml of samples were withdrawn and added to 0.4 ml of methanol to precipitate the plasma protein.

Aspergillus giganteus = assay: Antifungal MIC in vitro; assay type: cell-based
Microsporum canis = assay: Antifungal MIC in vitro; assay type: cell-based
Candida albicans = assay: Antifungal MIC in vitro; assay type: cell-based
Aspergillus tereus = assay: Antifungal MIC in vitro; assay type: cell-based
[5] = tested on: Penicillium carylophilium; assay: Antifungal MIC in vitro; assay type: cell-based
Fusarium oxisporum = assay: Antifungal MIC in vitro; assay type: cell-based
Aspergillus niger = assay: Antifungal MIC in vitro; assay type: cell-based
Streptococcus uberis = assay: Bacteriological cure of cow mastitis, topical treatment; assay type: in vivo; conditions: cows, day 22, topical 500 mg twice per day
Protocol: (§1) 90 lactating dairy cows were recruited. Bacteriological cure was considered to have been achieved if the samples taken from the affected quarter on day 17 and day 22 were free of the bacterial species isolated in the pretreatment sample. Clinical cure was defined as the disappearance of clinical signs of disease which were observed on day 1 before treatment, in other words by the return to normal feed intake, rectal temperature<39.0° C., good general condition, absence of udder edema, normal milk appearance, and normal milk yield.

[6] = tested on: Coagulase-negative staphylococci; assay: as above; assay type: in vivo; conditions: cows, day 22, topical 500 mg twice per day
Protocol: as §1

Staphylococcus aureus = assay: as above; assay type: in vivo; conditions: cows, day 22, topical 500 mg twice per day
Protocol: as §1

E. coli [7] = assay: as above; assay type: in vivo; conditions: cows, day 22, topical 500 mg twice per day
Protocol: as §1

Enterobacteriaceae = assay: as above; assay type: in vivo; conditions: cows, day 22, topical 500 mg twice per day
Protocol: as §1

Aspergillus nidulans = assay: Antifungal MIC in vitro; assay type: cell-based
[8] = tested on: Trichophyton mentagrophytes; assay: Antifungal MIC in vitro; assay type: cell-based
Fusarium aquaductum = assay: Antifungal MIC in vitro; assay type: cell-based
[9] = Clinical cure of cow mastitis, topical treatment; assay type: in vivo, lactating dairy cows; conditions: cows, 500 mg in 10 ml pH 7.4 phosphate buffer sprayed on skin of udder twice per day
Protocol: as §1

[10] = Staphylococcus aureus, MRSA, read-out: MIC

In vitro Penetration Rate (apparent flux), Parent compounds ([1]; human, 10 %): <0.010 mg/cm^2/h
MIC [2, 10]: 2790 µg/mL (≈ 7270 µM)
Compound: CO/N=C(\C(=O)N[C@@H]1C(=O)N2C(C(=O)O)=CCS[C@H]12)c1csc(N)n1 [Ceftizoxime, reference compound]

MIC (E. cloacae): 1 µg/mL
MIC (K. pneumonlae): 0.5 µg/mL
MIC (B. fragilis): 8 µg/mL
Compound: CO/N=C(\C(=O)N[C@@H]1C(=O)N2C(C(=O)O)=C(CSc3nc(=O)c(=O)[nH]n3C)CS[C@H]12)c1csc(N)n1 [Ceftriaxone]

Compound: O=C(O)c1cn(C2CC2)c2cc(N3CCNCC3)c(F)cc2c1=O [Ciprofloxacin, 1-cyclopropyl-6-fluoro-4-oxo-7-piperazin-1-yl-quinoline-3-carboxylic acid]
MIC (E. coli [3]): 10 µg/mL (≈ 30.2 µM)
MIC (E. faecalis): 2 µg/mL (≈ 6.04 µM)
MIC (S. aureus): 128 µg/mL (≈ 386 µM)

In vitro Penetration Rate (apparent flux), Parent compounds ([1]; human, 10 %): <0.001 mg/cm^2/h
MIC [2, 10]: 2160 µg/mL (≈ 5670 µM)
Compound: COc1cccc(OC)c1C(=O)N[C@@H]1C(=O)N2[C@@H]1SC(C)(C)[C@@H]2C(=O)O [Methicillin, reference compound]

Compound: Cc1noc(NS(=O)(=O)c2ccc(N)cc2)c1C [Sulfisoxazole]
MIC (E. coli [3]): 16 µg/mL (≈ 59.9 µM)
MIC (E. faecalis): 55 µg/mL (≈ 206 µM)
MIC (S. aureus): 64 µg/mL (≈ 239 µM)

Compound: CCN(CC)CCOC(=O)C1=CCSC2C(NC(=O)C(=NOC)c3csc(NC(C)=O)n3)C(=O)N12.Cl (stereo not drawn) [ceftizoxime-DEE, 7-[[(2-acetylamino-4-thiazolyl)(methoxyimino)acetyl]amino]-8-oxo-5-thia-1-azabicyclo[4.2.0]oct-2-ene-2-carboxylic acid 2-diethylaminoethyl ester hydrochloride]
half-life at 9.1 mg/mL ([4]; human, plasma, pH 7.4): 11 min
MIC (Aspergillus giganteus; Aspergillus giganteus, read-out: Minimum inhibitory concentration, Aspergillus giganteus): 5 µg/mL
In vitro Penetration Rate (apparent flux), HPPs ([1]; human, 10 %): 0.62 ± 0.05 mg/cm^2/h
MIC (Microsporum canis; Microsporum canis, read-out: Minimum inhibitory concentration, Microsporum canis): 2 µg/mL
MIC (Candida albicans; Candida albicans, read-out: Minimum inhibitory concentration, Candida albicans): 8 µg/mL
MIC (Aspergillus tereus; Aspergillus, read-out: Minimum inhibitory concentration, Aspergillus tereus): 4 µg/mL
MIC ([5]; Penicillium, read-out: Minimum inhibitory concentration, Penicillium carylophilium): 3 µg/mL
MIC (Fusarium oxisporum; Fusarium, read-out: Minimum inhibitory concentration, Fusarium oxisporum): 5 µg/mL
MIC (Aspergillus niger; Aspergillus niger, read-out: Minimum inhibitory concentration, Aspergillus niger): 4 µg/mL
Bacteriological cure rate, Streptococcus uberis (Streptococcus uberis): 82%
Bacteriological cure, No. cured, Streptococcus uberis (Streptococcus uberis): 9
Bacteriological cure rate, Coagulase-negative staphylococci [6]: 87.5%
Bacteriological cure, No. cured, Coagulase-negative staphylococci [6]: 7
Bacteriological cure rate, Staphylococcus aureus (Staphylococcus aureus): 83%
Bacteriological cure, No. cured, Staphylococcus aureus (Staphylococcus aureus): 5
Bacteriological cure rate, E. coli (E. coli [7]): 87.5%
Bacteriological cure, No. cured, E. coli (E. coli [7]): 7
Bacteriological cure rate, Enterobacteriaceae (Enterobacteriaceae): 83.3%
Bacteriological cure, No. cured, Enterobacteriaceae (Enterobacteriaceae): 5
MIC (Aspergillus nidulans; Aspergillus nidulans, read-out: Minimum inhibitory concentration, Aspergillus nidulans): 4 µg/mL
MIC ([8]; Trichophyton mentagrophytes, read-out: Minimum inhibitory concentration, Trichophyton mentagrophytes): 9 µg/mL
MIC [2, 10]: 0.5 µg/mL
MIC (Fusarium aquaductum; Fusarium, read-out: Minimum inhibitory concentration, Fusarium aquaductum): 3 µg/mL
Clinical Cure Rate, Day 3 [9]: 53%
Clinical Cure Rate, Day 8 [9]: 93%
Clinical Cure Rate, Day 15 [9]: 99%
Clinical Cure Rate, Day 22 [9]: 100%

Compound: CCCCOC(=O)c1cn(C2CC2)c2cc(N3CCNCC3)c(F)cc2c1=O.Cl [ciprofloxacin-BE, 1-cyclopropyl-6-fluoro-4-oxo-7-piperazin-1-yl-quinoline-3-carboxylic acid butyl ester•HCl salt]
In vitro Penetration Rate (apparent flux), HPPs of sulfonamides, sulfones, quinolones [1]: 0.29 ± 0.02 mg/cm^2/h
MIC, E. coli (E. coli [3]): 0.2 µg/mL
MIC, E. faecalis (E. faecalis): 0.05 µg/mL
MIC, S. aureus (S. aureus): 5 µg/mL

Compound: CCN(CC)CCOC(=O)C1N2C(=O)C(NC(=O)c3c(OC)cccc3OC)C2SC1(C)C.Cl (stereo not drawn) [methicillin-DEE, 6-(2,6-dimethoxybenzamido)penicillinic acid 2-diethylaminoethyl ester hydrochloride]
Half life of HPPs in plasma ([4]; human plasma, 37° C.): 10 ± 1 min
Minimum inhibitory concentration, Aspergillus giganteus (Aspergillus giganteus): 9 µg/mL
Minimum inhibitory concentration, Microsporum canis (Microsporum canis): 8 µg/mL
Minimum inhibitory concentration, Candida albicans (Candida albicans): 16 µg/mL
Minimum inhibitory concentration, Aspergillus tereus (Aspergillus tereus): 12 µg/mL
Minimum inhibitory concentration, Penicillium carylophilium [5]: 9 µg/mL
Minimum inhibitory concentration, Fusarium oxisporum (Fusarium oxisporum): 8 µg/mL
Minimum inhibitory concentration, Aspergillus niger (Aspergillus niger): 9 µg/mL
Bacteriological cure rate, Streptococcus uberis (Streptococcus uberis): 70%
Bacteriological cure, No. cured, Streptococcus uberis (Streptococcus uberis): 7
Bacteriological cure rate, Coagulase-negative staphylococci [6]: 85.7%
Bacteriological cure, No. cured, Coagulase-negative staphylococci [6]: 6
Bacteriological cure rate, Staphylococcus aureus (Staphylococcus aureus): 80%
Bacteriological cure, No. cured, Staphylococcus aureus (Staphylococcus aureus): 4
Bacteriological cure rate, E. coli (E. coli [7]): 80%
Bacteriological cure, No. cured, E. coli (E. coli [7]): 8
Bacteriological cure rate, Enterobacteriaceae (Enterobacteriaceae): 75%
Bacteriological cure, No. cured, Enterobacteriaceae (Enterobacteriaceae): 6
Minimum inhibitory concentration, Aspergillus nidulans (Aspergillus nidulans): 8 µg/mL
Minimum inhibitory concentration, Trichophyton mentagrophytes [8]: 22 µg/mL
Minimum inhibitory concentration, Fusarium aquaductum (Fusarium aquaductum): 10 µg/mL
Clinical Cure Rate, Day 3 [9]: 43%
Clinical Cure Rate, Day 8 [9]: 90%
Clinical Cure Rate, Day 15 [9]: 97%
Clinical Cure Rate, Day 22 [9]: 100%

Compound: COc1cccc(OC)c1C(=O)NC1C(=O)N2C1SC(C)(C)C2C(=O)OCC1CCCN1.Cl (stereo not drawn) [methicillin-PME, 6-(2,6-dimethoxybenzamido)penicillinic acid 2-pyrrolidinemethyl ester hydrochloride]
MIC [2]: 10 µg/mL

Compound: CCn1cc(C(=O)O)c(=O)c2ccc(C)nc21 [nalidixic acid, 1-ethyl-7-methyl-4-oxo-[1,8]naphthyridine-3-carboxylic acid]
MIC (E. coli [3]): 6 µg/mL (≈ 25.8 µM)
MIC (E. faecalis): 64 µg/mL (≈ 276 µM)
MIC (S. aureus): 158 µg/mL (≈ 680 µM)

Compound: CCN(CC)CCOC(=O)c1cn(CC)c2nc(C)ccc2c1=O.Cl [nalidixic acid-DEE, 1-ethyl-7-methyl-4-oxo-[1,8]naphthyridine-3-carboxylic acid N,N-diethylaminoethyl ester•HCl salt]
In vitro Penetration Rate (apparent flux), HPPs of sulfonamides, sulfones, quinolones [1]: 0.25 ± 0.04 mg/cm^2/h
MIC, E. coli (E. coli [3]): 0.2 µg/mL
MIC, E. faecalis (E. faecalis): 1 µg/mL
MIC, S. aureus (S. aureus): 5 µg/mL

Compound: CCN(CC)CCOC(=O)C1N2C(=O)C(NC(=O)COc3ccccc3)C2SC1(C)C.Cl (stereo not drawn) [penicillin V-DEE, 6-phenoxyacetacetamidopenicillanic acid 2-diethylaminoethyl ester hydrochloride]
Half life of HPPs in plasma ([4]; human, plasma): 8 ± 1 min
Minimum inhibitory concentration, Aspergillus giganteus (Aspergillus giganteus): 3 µg/mL
In vitro Penetration Rate (apparent flux), HPPs [1]: 0.72 ± 0.06 mg/cm^2/h
Minimum inhibitory concentration, Microsporum canis (Microsporum canis): 2 µg/mL
Minimum inhibitory concentration, Candida albicans (Candida albicans): 7 µg/mL
Minimum inhibitory concentration, Aspergillus tereus (Aspergillus tereus): 2 µg/mL
Minimum inhibitory concentration, Penicillium carylophilium [5]: 2 µg/mL
Minimum inhibitory concentration, Fusarium oxisporum (Fusarium oxisporum): 3 µg/mL
Minimum inhibitory concentration, Aspergillus niger (Aspergillus niger): 3 µg/mL
Bacteriological cure rate, Streptococcus uberis (Streptococcus uberis): 80%
Bacteriological cure, No. cured, Streptococcus uberis (Streptococcus uberis): 8
Bacteriological cure rate, Coagulase-negative staphylococci [6]: 78%
Bacteriological cure, No. cured, Coagulase-negative staphylococci [6]: 7
Bacteriological cure rate, Staphylococcus aureus (Staphylococcus aureus): 67%
Bacteriological cure, No. cured, Staphylococcus aureus (Staphylococcus aureus): 4
Bacteriological cure rate, E. coli (E. coli [7]): 87.5%
Bacteriological cure, No. cured, E. coli (E. coli [7]): 7
Bacteriological cure rate, Enterobacteriaceae (Enterobacteriaceae): 85.7%
Bacteriological cure, No. cured, Enterobacteriaceae (Enterobacteriaceae): 6
Minimum inhibitory concentration, Aspergillus nidulans (Aspergillus nidulans): 3 µg/mL
Minimum inhibitory concentration, Trichophyton mentagrophytes [8]: 12 µg/mL
Minimum inhibitory concentration, Fusarium aquaductum (Fusarium aquaductum): 2 µg/mL
Clinical Cure Rate, Day 3 [9]: 50%
Clinical Cure Rate, Day 8 [9]: 90%
Clinical Cure Rate, Day 15 [9]: 93%
Clinical Cure Rate, Day 22 [9]: 97%

MIC [2]: 1 µg/mL
Compound: CC1(C)SC2C(NC(=O)COc3ccccc3)C(=O)N2C1C(=O)OCCN1CCCCC1.Cl (stereo not drawn) [penicillin V-PEE, 6-phenoxyacetacetamidopenicillanic acid 1-piperidineethyl ester hydrochloride]

Compound: penicillin V [reference compound]
MIC [2]: 3524 µg/mL
